Laboratory results taken from patent publication US20250000856A1, “CRYSTALLINE FORMS OF N-((1R,3S)-3-(4-ACETYLPIPERAZIN-1-YL)CYCLOHEXYL)-4-FLUORO-7-METHYL-1H-INDOLE-2-CARBOXAMIDE” (Epizyme, Inc., priority 2021, published 2025).

Assay: Pharmacokinetics of Free Base Forms I and II in male Beagle dogs after a single oral dose; Compound 1 plasma concentrations by LC-MS/MS
Assay type: in vivo
Method: In this study, male Beagle dogs were administered Free Base Form I and Free Base Form II at 25 mg/kg and 100 mg/kg (0.5% carboxymethylcellulose (CMC) and 0.1% Tween in water at pH 7). The dogs were fasted overnight and then offered food one hour prior to oral administration of the form. Blood samples were collected at predetermined timepoints up to 48 hours. Compound 1 plasma concentrations were determined by liquid chromatography with tandem mass spectrometry (LC-MS/MS) methods.

[1] = 25 mg/kg dose, versus Free Base Form I
[2] = 100 mg/kg dose, versus Free Base Form I

CC(=O)N1CCN([C@H]2CCC[C@@H](NC(=O)c3cc4c(F)ccc(C)c4[nH]3)C2)CC1 [Free Base Form II, N-((1R,3S)-3-(4-acetylpiperazin-1-yl)cyclohexyl)-4-fluoro-7-methyl-1H-indole-2-carboxamide]
Compound 1 AUC0-inf greater than that of Free Base Form I [1]: ~20% | Compound 1 Cmax greater than that of Free Base Form I [1]: ~40% | AUC0-inf greater than that of Free Base Form I [2]: 3.1 fold | Cmax greater than that of Free Base Form I [2]: 1.8 fold | exposure in dogs compared with Free Base Form I (oral 25 and 100 mg/kg, difference dose-dependent): unexpectedly greater exposure
